Measured values reported in ChEMBL document CHEMBL3585245, “Synthesis and antiproliferative evaluation of 9-methoxy-6-(piperazin-1-yl)-11H-indeno[1,2-c]quinoline-11-one derivatives. Part 4” (Medchemcomm, 2014).
Activity calls are given as the source filed them. The rule behind the calls is not given here.

What was measured:
NCI-H1299 [1] = experiment: Induction of apoptosis in human H1299 cells assessed as late apoptotic cells level at 5 uM annexin V and propidium iodide double staining based flow cytometry (reference value: 1.9 +/- 0.12%); format: functional
[2] = Antiproliferative activity against human SKHep cells incubated for 72 hrs by MTT assay; format: functional, cell-based
[3] = Antiproliferative activity against human 786-O cells incubated for 72 hrs by MTT assay; format: functional, cell-based; settings: 786-0, 72 h
NCI-H1299 [4] = experiment: Induction of apoptosis in human H1299 cells assessed as late apoptotic cells level at 10 uM annexin V and propidium iodide double staining based flow cytometry (reference value: 1.9 +/- 0.12%); format: functional
MDA-MB-231 = experiment: Antiproliferative activity against human MDA-MB-231 cells incubated for 72 hrs by MTT assay; format: functional, cell-based; settings: MDA-MB-231, 72 h
NCI-H1299 [5] = experiment: Induction of apoptosis in human H1299 cells assessed as late apoptotic cells level at 1 uM annexin V and propidium iodide double staining based flow cytometry (reference value: 1.9 +/- 0.12%); format: functional
NCI-H1299 [6] = experiment: Antiproliferative activity against human H1299 cells incubated for 72 hrs by MTT assay; format: functional, cell-based; settings: NCI-H1299, 72 h
NCI-H1299 [7] = experiment: Induction of apoptosis in human H1299 cells assessed as early apoptotic cells level at 10 uM annexin V and propidium iodide double staining based flow cytometry (reference value: 0.4 +/- 0.17%); format: functional
SAS = experiment: Antiproliferative activity against human SAS cells incubated for 72 hrs by MTT assay; format: functional, cell-based
NCI-H1299 [8] = experiment: Induction of DNA damage in human H1299 cells at 10 uM incubated for 24 hrs by single cell electrophoresis-based alkaline comet assay; format: functional
HeLa = experiment: Antiproliferative activity against human HeLa cells incubated for 72 hrs by MTT assay; format: functional, cell-based
NCI-H1299 [9] = experiment: Induction of apoptosis in human H1299 cells assessed as early apoptotic cells level at 5 uM annexin V and propidium iodide double staining based flow cytometry (reference value: 0.4 +/- 0.17%); format: functional
AGS = experiment: Antiproliferative activity against human AGS cells incubated for 72 hrs by MTT assay; format: functional, cell-based
NCI-H1299 [10] = experiment: Induction of apoptosis in human H1299 cells assessed as early apoptotic cells level at 1 uM annexin V and propidium iodide double staining based flow cytometry (reference value: 0.4 +/- 0.17%); format: functional
Detroit 551 = experiment: Antiproliferative activity against human Detroit 551 cells incubated for 72 hrs by MTT assay; format: functional, cell-based; settings: Detroit 551, 72 h
NCI-H1299 [11] = experiment: Induction of apoptosis in human H1299 cells assessed as increase in caspase-3 activation at 1 to 10 uM incubated for 24 hrs by Western blotting method; format: functional, cell-based
NCI-H1299 [12] = experiment: Induction of apoptosis in human H1299 cells assessed as increase in BAX cleavage at 1 to 10 uM incubated for 24 hrs by Western blotting method; format: functional, cell-based
Nucleic Acid = experiment: Induction of DNA intercalation of negative supercoiled Escherichia coli pBR322 DNA at 10 uM incubated for 12 hrs by ethidium bromide staining based DNA mobility assay; format: nucleic-acid assay
NCI-H1299 [13] = experiment: Induction of apoptosis in human H1299 cells assessed as late apoptotic cells level at 5 uM annexin V and propidium iodide double staining based flow cytometry (reference value: 2.62 +/- 0.75%); format: functional
[14] = Reduction in SIRT1 protein expression in human H1299 cells at 1 to 10 uM incubated for 24 hrs by Western blotting method; format: functional, cell-based; settings: NCI-H1299
NCI-H1299 [15] = experiment: Induction of apoptosis in human H1299 cells assessed as increase in caspase-7 activation at 1 to 10 uM incubated for 24 hrs by Western blotting method; format: functional, cell-based
NCI-H1299 [16] = experiment: Induction of apoptosis in human H1299 cells assessed as increase in PARP cleavage at 1 to 10 uM incubated for 24 hrs by Western blotting method; format: functional, cell-based
NCI-H1299 [17] = experiment: Induction of apoptosis in human H1299 cells assessed as early apoptotic cells level at 10 uM annexin V and propidium iodide double staining based flow cytometry (reference value: 0.74 +/- 0.31%); format: functional
[18] = Reduction in FOXO3a protein expression in human H1299 cells at 1 to 10 uM incubated for 24 hrs by Western blotting method; format: functional, cell-based; settings: NCI-H1299
[19] = Reduction in HDAC6 protein expression in human H1299 cells at 1 to 10 uM incubated for 24 hrs by Western blotting method; format: functional, cell-based; settings: NCI-H1299
NCI-H1299 [20] = experiment: Induction of DNA damage in human H1299 cells at 5 uM incubated for 24 hrs by single cell electrophoresis-based alkaline comet assay; format: functional
NCI-H1299 [21] = experiment: Induction of apoptosis in human H1299 cells assessed as decrease in Bcl2 expression at 1 to 10 uM incubated for 24 hrs by Western blotting method; format: functional, cell-based
[22] = Reduction in PTEN protein expression in human H1299 cells at 1 to 10 uM incubated for 24 hrs by Western blotting method; format: functional, cell-based; settings: NCI-H1299
NCI-H1299 [23] = experiment: Induction of apoptosis in human H1299 cells assessed as early apoptotic cells level at 1 uM annexin V and propidium iodide double staining based flow cytometry (reference value: 0.74 +/- 0.31%); format: functional
NCI-H1299 [24] = experiment: Induction of apoptosis in human H1299 cells assessed as late apoptotic cells level at 10 uM annexin V and propidium iodide double staining based flow cytometry (reference value: 2.62 +/- 0.75%); format: functional
NCI-H1299 [25] = experiment: Induction of apoptosis in human H1299 cells assessed as early apoptotic cells level at 5 uM annexin V and propidium iodide double staining based flow cytometry (reference value: 0.74 +/- 0.31%); format: functional
NCI-H1299 [26] = experiment: Induction of apoptosis in human H1299 cells assessed as late apoptotic cells level at 1 uM annexin V and propidium iodide double staining based flow cytometry (reference value: 2.62 +/- 0.75%); format: functional
[27] = Reduction in p-Akt protein expression in human H1299 cells at 1 to 10 uM incubated for 24 hrs by Western blotting method; format: functional, cell-based; settings: NCI-H1299

| Structure (SMILES) | IC50 [2] | IC50 [3] | IC50 (MDA-MB-231) | IC50 (NCI-H1299 [6]) | IC50 (SAS) | IC50 (HeLa) | IC50 (AGS) | IC50 (Detroit 551) | further results |
| --- | --- | --- | --- | --- | --- | --- | --- | --- | --- |
| COc1ccc2c(c1)C(=O)c1c-2c(N2CCN(CC3CO3)CC2)nc2ccccc12 (stereo not drawn) | > 30 µM | 19.1 µM | 7.65 µM | 7.92 µM | > 30 µM | 10.7 µM | 21.4 µM |  | Activity (NCI-H1299 [1]): 4.98%; Activity (NCI-H1299 [4]): 7.57%; Activity (NCI-H1299 [5]): 4.51%; Activity (NCI-H1299 [7]): 3.29%; Activity (NCI-H1299 [8]): Active; Activity (NCI-H1299 [9]): 1.57%; Activity (NCI-H1299 [10]): 1.83% |
| COc1ccc2c(c1)C(=O)c1c-2c(N2CCN(C(=O)CNCCO)CC2)nc2ccccc12 | 6.64 µM | 6.7 µM | 5.9 µM | 5.41 µM | 11.3 µM | 4.74 µM | 6.55 µM | 8.78 µM |  |
| COc1ccc2c(c1)C(=O)c1c-2c(N2CCN(C(=O)CCN3CCNCC3)CC2)nc2ccccc12 | 4.93 µM | 1.5 µM | 6.26 µM | 5.87 µM | 7.7 µM | 4.71 µM | 5.46 µM | 3.35 µM |  |
| CNCC(=O)N1CCN(c2nc3ccccc3c3c2-c2ccc(OC)cc2C3=O)CC1 | 4.83 µM | 6.2 µM | 5.92 µM | 5.14 µM | 7.4 µM | 2.04 µM | 7.15 µM | 4.84 µM |  |
| COc1ccc2c(c1)C(=O)c1c-2c(N2CCN(C(=O)CCNCCO)CC2)nc2ccccc12 | 4.51 µM | 2.03 µM | 6.08 µM | 5.67 µM | 9.1 µM | 3.13 µM | 3.67 µM | 8.38 µM |  |
| CNCCC(=O)N1CCN(c2nc3ccccc3c3c2-c2ccc(OC)cc2C3=O)CC1 | 9.1 µM | 6 µM | 5.89 µM | 5.46 µM | 6.9 µM | 1.9 µM | 8.11 µM | 2.92 µM |  |
| COc1ccc2c(c1)C(=O)c1c-2c(N2CCN(C(=O)CN3CCNCC3)CC2)nc2ccccc12 | 2.22 µM | 4 µM | 5.45 µM | 5.32 µM | 7.4 µM | > 30 µM | 3.37 µM | 2.55 µM |  |
| COc1ccc2c(c1)C(=O)c1c-2c(N2CCN(C(=O)CCNCCN(C)C)CC2)nc2ccccc12 | 5.08 µM | 7.03 µM | 7.44 µM | 5.65 µM | 8.8 µM | 4.78 µM | 4.94 µM | 2.53 µM |  |
| COc1ccc2c(c1)/C(=N\OCC1CO1)c1c-2c(N2CCN(CC3CO3)CC2)nc2ccccc12 (stereo not drawn) | 0.99 µM | 8.8 µM | 0.79 µM | 1.18 µM | 6.2 µM | 0.54 µM | 8.76 µM | 7.95 µM | Activity (NCI-H1299 [11]): Active; Activity (NCI-H1299 [12]): Active; Activity (Nucleic Acid): Active; Activity (NCI-H1299 [13]): 8.25%; Activity [14]: Active; Activity (NCI-H1299 [15]): Active; Activity (NCI-H1299 [16]): Active; Activity (NCI-H1299 [17]): 1.6%; Activity [18]: Active; Activity [19]: Active; Activity (NCI-H1299 [20]): Active; Activity (NCI-H1299 [21]): Active; Activity [22]: Active; Activity (NCI-H1299 [23]): 1.38%; Activity (NCI-H1299 [24]): 17.9%; Activity (NCI-H1299 [25]): 2.45%; Activity (NCI-H1299 [26]): 4.5%; Activity [27]: Active |
| COc1ccc2c(c1)/C(=N\OCCN1CCCC1)c1c-2c(O)nc2ccccc12 |  |  |  |  |  |  |  |  | Activity (Nucleic Acid): Active |
| COc1ccc2c(c1)C(=O)c1c-2c(N2CCN(C(=O)CCN3CCOCC3)CC2)nc2ccccc12 | 15.1 µM | > 30 µM | 21.9 µM | 18.7 µM | > 30 µM | 14.3 µM | 12 µM |  |  |
| COc1ccc2c(c1)C(=O)c1c-2c(N2CCN(CC(O)CN(C)C)CC2)nc2ccccc12 (stereo not drawn) | 2.22 µM | 6.8 µM | 6.11 µM | 6.84 µM | 6.9 µM | 2.47 µM | 7.86 µM | 2.58 µM |  |
| CC[C@@]1(O)C(=O)OCc2c1cc1n(c2=O)Cc2cc3ccccc3nc2-1 [CAMPTOTHECIN] | 0.22 µM | 0.015 µM | 2.11 µM | 3.14 µM | 6 µM | 0.18 µM | 23.8 µM | 0.99 µM |  |
| COc1ccc2c(c1)C(=O)c1c-2c(N2CCN(C(=O)CNCCCN(C)C)CC2)nc2ccccc12 | 13.1 µM | 9.97 µM | 6 µM | 5.99 µM | > 30 µM | 10.8 µM | 5.62 µM | 8.89 µM |  |
| COc1ccc2c(c1)C(=O)c1c-2c(N2CCN(C(=O)CN(C)C)CC2)nc2ccccc12 | 19.2 µM | 14.1 µM | 6.15 µM | 6.28 µM | > 30 µM | 11.8 µM | 8.7 µM | 31.5 µM |  |
| COc1ccc2c(c1)C(=O)c1c-2c(N2CCN(C(=O)CNCCN(C)C)CC2)nc2ccccc12 | 16 µM | 9.37 µM | 6.15 µM | 6.48 µM | 19.5 µM | 8.17 µM | 14.1 µM | 4.59 µM |  |
| COc1ccc2c(c1)/C(=N\OCC(O)CN(C)C)c1c-2c(N2CCN(CC(O)CN(C)C)CC2)nc2ccccc12 (stereo not drawn) | 2.46 µM | 13.9 µM | 0.7 µM | 0.68 µM | 9 µM | 0.98 µM | 18.6 µM | 2.05 µM |  |
| COc1ccc2c(c1)/C(=N\O)c1c-2c(N2CCNCC2)nc2ccccc12 | 3.75 µM | 1.2 µM | 5.87 µM | 5.72 µM | 6.1 µM | 2.35 µM | 1.74 µM |  |  |
| CNCC(O)CN1CCN(c2nc3ccccc3c3c2-c2ccc(OC)cc2C3=O)CC1 (stereo not drawn) | 3.44 µM | 6.4 µM | 6.05 µM | 6.89 µM | 7.4 µM | 4.64 µM | 9.58 µM | 9.4 µM |  |
| COc1ccc2c(c1)C(=O)c1c-2c(N2CCN(C(=O)CCNCCCN(C)C)CC2)nc2ccccc12 | 8.6 µM | 5.9 µM | 5.7 µM | 5.44 µM | 13.5 µM | 5.43 µM | 2.8 µM | 6.42 µM |  |
| COc1ccc2c(c1)C(=O)c1c-2c(N2CCN(C(=O)CCN(C)C)CC2)nc2ccccc12 | 16.6 µM | 11.5 µM | 6.61 µM | 5.79 µM | 17 µM | 11.7 µM | 8.11 µM | 2.84 µM |  |
| COc1ccc2c(c1)C(=O)c1c-2c(N2CCN(C(=O)CN3CCOCC3)CC2)nc2ccccc12 | 19.9 µM | > 30 µM | > 30 µM | > 30 µM | > 30 µM | 18 µM | 21.4 µM |  |  |
| COc1ccc2c(c1)C(=O)c1c-2c(N2CCNCC2)nc2ccccc12 | 25.3 µM | 12.5 µM | 23.8 µM | 17.1 µM | > 30 µM | 15.2 µM | 10.1 µM | 5.71 µM |  |
